Counter-ions that a name gives are not always drawn.
Assays:
[1] = test system: human neuroblastoma strains SH-SY-5Y and SK-N-BE Bep 75; assay: Measurement of apoptosis (NGF-induced, cell death detection ELISA); assay type: cell-based; details: SH-SY5Y, NGF 10 ng/ml, cell strain not given, read-out: IC50, inhibitory activity on NGF-induced apoptosis
Procedure: The SH-SY-5Y strain (human neuroblastoma) is cultured conventionally in a DMEM culture medium (Dulbecco's Modified Eagle's Medium) (Gibco BRL, France) containing FCS (5%) (foetal calf serum) (Boehringer Mannheim, Germany), sodium pyruvate (1 mM) and glutamine (4 mM) in culture flasks coated with collagen (Becton Dickinson, France).
(§1) The SK-N-BE parent strain (human neuroblastoma) and the Bep 75 clone, stably expressing the whole form of the human p75^NTRreceptor (SK-N-BE Bep 75) are cultured conventionally in a RPMI culture medium containing FCS (5%), sodium pyruvate (1 mM) and glutamine (4 mM). For the SK-N-BE Bep 75 cells, hygromycin (200 μl/20 ml of medium) is added as selection agent.
The cells (human neuroblastoma strains SH-SY-5Y and SK-N-BE Bep 75) are placed in 35 mm diameter Petri dishes (Biocoat collagen I), (10^5cells/well) in an appropriate culture medium containing 5% of FCS for 24 h. […] The degrees of apoptosis are measured 48 hours after the treatments in the case of the SH-SY-5Y strain, and 24 hours after the treatments in the case of the SK-N-BE Bep 75 strain, by quantification of the DNA fragment-associated cytoplasmic histones (cell death detection ELISA, Boehringer Mannheim, Germany). The degrees of apoptosis are expressed as amount of oligonucleosomes/10^5cells. […]

[2] = target: T1, p75NTR receptor (Homo sapiens, UniProt P08138); assay: Dimerization of the p75NTR receptor independently of its ligand (soluble p75NTR-alkaline phosphatase binding to SK-N-BE Bep 75 cells); parameters: the Bep 75 clone, stably expressing the whole form of the human p75^NTRreceptor; a soluble form of the p75^NTRreceptor (extracellular part of the receptor); expressed in transfected cells; host or cells: SK-N-BE Bep 75 cells (membrane receptor); transiently transfected HEK293 cells (secreted soluble p75NTR-alkaline phosphatase, used as culture supernatant); details: soluble p75NTR-alkaline phosphatase 10 nM, 1 h preincubation at 37° C.
T1 sequence (P08138 29-427): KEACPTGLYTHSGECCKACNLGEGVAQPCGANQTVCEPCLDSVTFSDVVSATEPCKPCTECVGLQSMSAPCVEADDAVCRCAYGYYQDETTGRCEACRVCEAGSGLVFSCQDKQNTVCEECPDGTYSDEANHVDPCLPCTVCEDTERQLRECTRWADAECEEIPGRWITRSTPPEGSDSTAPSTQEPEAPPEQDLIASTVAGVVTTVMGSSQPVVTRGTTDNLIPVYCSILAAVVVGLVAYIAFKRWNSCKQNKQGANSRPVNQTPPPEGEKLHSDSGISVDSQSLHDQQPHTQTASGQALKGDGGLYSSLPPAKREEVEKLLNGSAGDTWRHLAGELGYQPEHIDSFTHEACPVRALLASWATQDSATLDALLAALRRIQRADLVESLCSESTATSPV
Procedure: as §1
Study of the dimerization of the p75^NTRreceptor independently of its ligand
The p75^NTRreceptor dimerization study is carried out on a cell suspension of the SK-N-BE Bep 75 strain. The cells (2.5 10^4cells/well) are placed in wells (96-well plate) for 24 h, and then preincubated for 1 h at 37° C. in the presence or absence of the compounds according to the invention. Supernatant is then added, this supernatant being derived from the culture of HEK293 human cells of renal origin expressing, after 48 h of transfection, and secreting a soluble form of the p75^NTRreceptor (extracellular part of the receptor) coupled to an alkaline phosphatase, at the final concentration of 10 nM. The quantification of the specific binding of the soluble p75^NTRreceptor to the receptor present on SK-N-BE Bep 75 cells is determined by measuring the alkaline phosphatase enzymatic activity after incubation of the cells for 1 hour at 37° C. in the presence of the supernatant. After filtration and transfer of the filters into 24-well plates, the alkaline phosphatase activity is determined by adding CDP-Star chemiluminescent substrate (ready-to-use, Roche).

[3] = target: T1, p75NTR receptor; assay: Binding of 125I NGF to the p75NTR receptor (competition, SK-N-BE Bep 75 cell suspension); parameters: the Bep 75 clone, stably expressing the whole form of the human p75^NTRreceptor; expressed in transfected cells; host or cells: SK-N-BE Bep 75 (human neuroblastoma clone, hygromycin selection); details: SK-N-BE Bep 75 cells; 125I NGF 0.3 nM
Procedure: as §1
Study of the binding of the ^125I NGF to the p75^NTRreceptor
The NGF binding study (nerve grown factor radiolabelled with iodine-125, Amersham—2000 Ci/mmol) is carried out on a cell suspension of the SK-N-BE Bep 75 strain in accordance with the method described by Weskamp (Neuron, 1991, 6, 649-663). The nonspecific binding is determined by measuring the total binding after one hour of pre-incubation with the cells at 37° C. in the presence of non-radiolabelled NGF (1 μM). The specific binding is calculated by the difference between the total binding measurement and the non-specific binding measurement. The competition experiments are carried out using an iodinated NGF (^125I NGF) concentration of 0.3 nM.

Q: With `O=C(CN1CCN(c2ccccn2)C(=O)C1)N1CC=C(c2ccc(Cl)c(C(F)(F)F)c2)CC1` (as salt: HCl) [Compound 5, 4-{2-[4-(4-chloro-3-trifluoromethylphenyl)-3,6-dihydro-2H-pyridin-1-yl]-2-oxoethyl}-1-pyridin-2-ylpiperazin-2-one] as the compound, how does the melting point read?
A: The melting point was 160 to 163 °C.

Q: With `O=C(CN1CCN(c2ccc(C(F)(F)F)cn2)C(=O)C1)N1CC=C(c2ccc(Cl)c(C(F)(F)F)c2)CC1` (as salt: HCl) [Compound 1, 4-{2-[4-(4-chloro-3-trifluoromethylphenyl)-3,6-dihydro-2H-pyridin-1-yl]-2-oxoethyl}-1-(5-trifluoromethylpyridin-2-yl)piperazin-2-one] as the compound, how does the melting point read?
A: Its melting point is 210 to 211 °C.

Q: With `Cc1ccc(N2CCN(CC(=O)N3CC=C(c4ccc(Cl)c(C(F)(F)F)c4)CC3)CC2=O)nc1` (as salt: HCl) [Compound 2, 4-{2-[4-(4-chloro-3-trifluoromethylphenyl)-3,6-dihydro-2H-pyridin-1-yl]-2-oxoethyl}-1-(5-methylpyridin-2-yl)piperazin-2-one] as the compound, how does the melting point read?
A: Its melting point is 236 to 239 °C.

Q: For `O=C(CN1CCN(c2ccccn2)C(=O)C1)N1CC=C(c2ccc(Cl)c(C(F)(F)F)c2)CC1` [Compound 5, 4-{2-[4-(4-chloro-3-trifluoromethylphenyl)-3,6-dihydro-2H-pyridin-1-yl]-2-oxoethyl}-1-pyridin-2-ylpiperazin-2-one], which IC50 [1] is on record?
A: Its IC50 is 52 nM.

Q: With `Cc1ccc(N2CCN(CC(=O)N3CC=C(c4ccc(Cl)c(C(F)(F)F)c4)CC3)CC2=O)nc1` [Compound 2, 4-{2-[4-(4-chloro-3-trifluoromethylphenyl)-3,6-dihydro-2H-pyridin-1-yl]-2-oxoethyl}-1-(5-methylpyridin-2-yl)piperazin-2-one] as the compound, how does the IC50 [2] read?
A: The IC50 was 3.88 nM.

Q: For `O=C(CN1CCN(c2ccc(C(F)(F)F)cn2)C(=O)C1)N1CC=C(c2ccc(Cl)cc2)CC1` [Compound 3, 4-{2-[4-(4-chlorophenyl)-3,6-dihydro-2H-pyridin-1-yl]-2-oxoethyl}-1-(5-trifluoromethylpyridin-2-yl)piperazin-2-one], which IC50 [3] is on record?
A: Its IC50 is 0.1 nM.

Q: What about the IC50 [2] of the same compound?
A: The IC50 was 0.11 nM.

Q: And the melting point?
A: The melting point was 141 to 143 °C.

Q: For `O=C(CN1CCN(c2ccc(C(F)(F)F)cn2)C(=O)C1)N1CC=C(c2ccc(Cl)c(C(F)(F)F)c2)CC1` [Compound 1, 4-{2-[4-(4-chloro-3-trifluoromethylphenyl)-3,6-dihydro-2H-pyridin-1-yl]-2-oxoethyl}-1-(5-trifluoromethylpyridin-2-yl)piperazin-2-one], which IC50 [3] is on record?
A: The IC50 was 5.2 nM.

Q: And the IC50 [1]?
A: The IC50 was 1.61 nM.

Q: And the IC50 [2]?
A: The IC50 was 1.34 nM.

— patent US8247404B2, “Derivatives of 2-oxoalkyl-1-piperazin-2-one, preparation method thereof and therapeutic use of same” (Sanofi, priority 2008, dated 2012)
